Assays:
Shigella flexneri = assay: Agar disc diffusion antibacterial test; details: for diameter of clear zone inhibition / Inhibition %: E, (-) Shigella flexneri; for diameter of clear zone inhibition: 20 µL of 100 µM on 6 mm disc, Control (DMSO) = 6 mm; for Inhibition %: (T–C)/T × 100
CT-DNA [1] = assay: DNA cleavage by agarose gel electrophoresis in presence of H2O2; assay type: biochemical, calf; details: in the presence of H2O2, agarose gel
From the text: The DNA nuclease characteristics were scrutinized of all substances along with DNA containing H2O2 and Tris-HCl buffer solution with a pH of 7.4 [19]. The gel layer was discarded from the tank solution after the experiment was finished and put in front of a UV transilluminator, and each band lane was also scrutinized with the control (DNA + H2O2).
2.1. Resources and Techniques
We purchased the essential chemical substances and other reagents from Sigma Aldrich repository. Numerous analytical and spectral measurements were utilized to describe all the test compounds, including Bruker 300 MHz 1H NMR spectrometer, or Avance III HD Nanobay 400 MHz, Shimadzu FT-IR spectrometer, Shimadzu UV-Vis 1800, Varian E112 EPR spectrometer, Bruker Daltonics ESI-MS 3000 or Bruker Compact qTOFMS coupled to an LC system and (Varian Inc, USA, 410 proStar binary LC with 500 MS, IT, and PDA detectors, or Thermo Ultimate 3000 with PDA), Bruker AXS KAPPA APEX-2 or D8 ADVANCE diffractometers (SCXRD) and other analytical techniques. The further details were encapsulated in our previous reports.
2.2. DNA/BSA interaction studies
2.2.1. […]
After the completion of the experiment, the gel layer was taken out of the tank solution and exposed to a UV transilluminator. All band lanes were evaluated and compared to the control (DNA+H2O2) using bromophenol blue, […] is useful for visually analyzing the migrated band lanes for the degree of DNA cleavage. […]
By increasing the concentration of DNA (0 –50 μM), electronic absorption titrations were performed at the fixed concentration (50 μM) of all test compounds in aqueous media at room temperature. […] Using the molar extinction coefficient (6600 M −1 cm−1) at 260 nm, it was also possible to measure the DNA concentration per nucleotide and polynucleotide, denoting that the DNA was sufficiently free of protein by the ratio of absorbance at 260 and 280 nm of roughly 1.8 –1.9 [21, 22]. When raising the concentration of DNA in compound solution, up to the point of completely binding, the decrease in absorbance intensity was carefully observed.

Pseudomonas aeruginosa = assay: Agar disc diffusion antibacterial test; details: for diameter of clear zone inhibition / Inhibition %: D, (-) Pseudomonas aeruginosa; for diameter of clear zone inhibition: 20 µL of 100 µM on 6 mm disc, Control (DMSO) = 6 mm; for Inhibition %: (T–C)/T × 100
CT-DNA [2] = assay: DNA binding by cyclic voltammetry; design: species or system calf; details: for Kb, Method II: Cp/Cf vs [DNA]; for Kb, Method III: Ip^2 vs (Ipo^2 − Ip^2)/[DNA]; for Kred/Koxi (Calcd): Nernst equation, Ant.log nEs°/0.0591, n = 1; for Kred/Koxi Found (I): from method I binding constants; for Kb, Method I, Oxi / Kb, Method I, Red: log (1/[DNA]) vs log (I/I0 − I); for Kb, Method I, Oxi: oxidation; for Kb, Method I, Red: reduction; for S (binding site size): method II
Procedure: The CV experiment was carried out for free substances at 10 µM at room temperature with a 5 mM Tris-HCl/50 mM NaCl buffer solution (pH: 7.4). While CT-DNA increases (0–10 µM) in each sample solution, shifts in potential, including variations in the anodic and cathodic peak currents, have been monitored.
2.2.7. Evaluation of DNA interaction properties using cyclic voltammetry technique The electrochemical analysis is a critical entity to examine the electron transfer reactions of the test compounds. With a scan rate of 0.1V, the CHI 620C electrochemical analyzer was utilized with a three-electrode system consisting of glassy carbon as the working electrode, Ag/AgCl as the reference electrode, and platinum wire as the counter/auxiliary electrode to monitor changes in peak current and peak potential during the interaction between test compound and DNA. The changes in peak current and peak potential further afford data on the binding constant as well as the mode of interaction for test compound –DNA adducts. In single-compartment cells of 5 –15 mL, electrochemical titrations for all test compounds were executed at 25 °C in the absence and presence of DNA. The solutions were then deoxygenated by passing them through N 2 before measurements were made. The electrochemical analysis for free compounds was executed at a 10 µM concentration in the presence of 5mM Tr is-HCl /50 mM NaCl (pH = 7.2) buffer solution. Changes in the anodic […]
and cathodic peak currents, as well as potential shifts, have been observed as CT-DNA concentrations in each solution of complexes rise from 1 to 10 µM [32].
I ) = log [DNA] + log Kb (S24)
The peak currents of the chemical in the absence and presence of deoxyribonucleic acid are designated as I0 and I, respectively.
Kb values for all samples were estimated through the linear regression plot of log (1/[DNA]) versus log (I/I0–I) by method-I. Equation (S26) was attained from equation (S25).
Cf and Cb are represented as the free substance concentration and DNA-interacted compound, respectively, and equation (S28) was obtained by comparing equations (S26) and (S27).
Ipa is denoted as the anodic peak current in amperes, n is represented as the number of electrons participating in the redox (M 1+/M2+) process (n=1), The activation coefficient (charge transfer coefficient) is shown by the symbol α. and the value is equal to 0.5, which is a typically supported approximation for numerous quasi-reversible systems.
2.3. DFT and molecular modelling studies
DFT calculations were performed to comprehend the electronic structure and reactivity of ligand (HL) and metal complexes ( 1b-2b) using the Gaussian 09 package [ 34]. Geometries were fully optimized both in the gas phase and methanol solution using B3LYP, and comparatively later with the CAM-B3LYP and M06-2X functionals. For each complex, the […]

Row | Structure (SMILES) | diameter of clear zone inhibition (Shigella flexneri) | Inhibition % (Shigella flexneri) | DNA cleavage (chemical nuclease activity) (CT-DNA [1]) | diameter of clear zone inhibition (Pseudomonas aeruginosa) | Inhibition % (Pseudomonas aeruginosa) | Kb, Method II (CT-DNA [2]) | Kb, Method III (CT-DNA [2]) | Kred/Koxi (Calcd) (CT-DNA [2]) | Kred/Koxi Found (I) (CT-DNA [2]) | Kb, Method I, Oxi (CT-DNA [2]) | Kb, Method I, Red (CT-DNA [2]) | S (binding site size) (CT-DNA [2]) | zone of inhibition at 100 µM (Shigella flexneri; Shigella flexneri, read-out: diameter of clear zone inhibition) | zone of inhibition at 100 µM (Pseudomonas aeruginosa; Pseudomonas aeruginosa, read-out: diameter of clear zone inhibition)
1 | [Cu+2].[O-]c1ccccc1N=Cc1ccc(N2CCOCC2)cc1.[O-]c1ccccc1N=Cc1ccc(N2CCOCC2)cc1.c1cnc2c(c1)ccc1cccnc12 [(1b), [Cu^II(L)2(phen)]] | 17 mm | 65% | complete DNA cleavage | 9 mm | 33% | 35514 M⁻¹ | 21695 M⁻¹ | 3.2434 | 1.2053 | 17320 M⁻¹ | 20878 M⁻¹ | 0.267 bp | – | –
2 | [O-]c1ccccc1N=Cc1ccc(N2CCOCC2)cc1.[O-]c1ccccc1N=Cc1ccc(N2CCOCC2)cc1.[Zn+2].c1cnc2c(c1)ccc1cccnc12 [(2b), [Zn^II(L)2(phen)]] | 14 mm | 57% | partially cleaves DNA | 08 mm | 25% | 32242 M⁻¹ | 18300 M⁻¹ | 3.7609 | 1.1168 | 14610 M⁻¹ | 16317 M⁻¹ | 0.248 bp | – | –
3 | Oc1ccccc1N=Cc1ccc(N2CCOCC2)cc1 [(HL), 2-(4-morpholinobenzylideneamino)phenol] | – | 57% | No discernible DNA cleavage | – | 25% | 2477 M⁻¹ | 4837 M⁻¹ | 2.0964 | 1.1125 | 5280 M⁻¹ | 5874 M⁻¹ | 0.446 bp | 14 mm | 8 mm
